Assay results reported in EP0565593B1, “REDUCING PESTICIDAL INTERACTIONS IN CROPS” (priority 1990, dated 1992).
Several values for one entry are separate records, joined by “and”; a condition that tells them apart may be missing. Equal values may be shown once. Read-outs that look alike come from different tables or passages of the source.

Assays:
[1] = test system: Corn; experiment: Greenhouse test, combination of Procedures II and III: insecticide in-furrow or in cover layer, herbicide and antidote incorporated in cover layer (Examples 1-3, 6; Tables 1-3, 6); assay type: in vivo; conditions: for % Injury Corn: 3 weeks
[2] = test system: velvetleaf (Abutilon theophrasti); experiment: Greenhouse test, combination of Procedures II and III (Examples 1, 2; Tables 1, 2); assay type: in vivo; conditions: 3 weeks
[3] = test system: Corn; conditions: […]
[4] = test system: Giant foxtail (GIFT); experiment: whole plant or invertebrate; assay type: in vivo
[5] = test system: Corn
[6] = test system: Corn; experiment: Greenhouse test Procedure VII: biocide and antidote in furrow, herbicide POE (Examples 39-42, 48-50, 56-58; Tables 38-41, 47-49, 55-57); assay type: in vivo; conditions: Herbicide No. 8 0.28 Kg/Ha POE + COUNTER 15G 227 g/305 m + antidote in furrow
From the text: This procedure describes interaction among herbicide, biocide and antidote when the biocide and the antidote is applied to a soil furrow containing crop seed before emergence of the crop and the herbicide is applied after emergence of the crop and weeds. The soil and planting depth was described in Procedure IV. The containers for comparison, the biocide and antidote applications to soil furrows were described in Procedure VI. In this procedure, the seed beds of the first, second, third and fourth containers are covered by soil layers not treated with herbicide. The containers were then placed on a bench in a greenhouse and subirrigated as required for the duration of the test. The herbicide, dispersed or dissolved in water containing 0.25% v/v nonionic surfactant (X-77) was applied by a track sprayer (187 L/ha) to the emerged plants of the second, third and fourth containers about five days after planting. All treatments were run in duplicate. Plant response was observed according to Procedure IV. Variations in this procedure will be noted in the examples.
In this example, tests were conducted according to Procedure VII for the POE application of the herbicides following in-furrow application of COUNTER® 15G insecticide (BIOCIDE No. 1) and the antidote on the pre-planted test seeds. In this test, the herbicides were Nos. 1 (MON-12000), 10 (ALLY®) and #4 (HARMONY®) and the Antidote Nos. 1, 7, 12 and 33.
These in-furrow treatments comprised a 50-50 mix of blended granules of COUNTER with and without 5G granular antidotes at 7.4 + 7.4 mg/cm or 1.1 + 0.37 mg active ingredient (a.i.)/cm. The in-furrow initiation of the test was followed five (5) days later with POE application of the herbicides; observations were made eight (8) days later.
In another test, conducted simultaneously with that in Example 39, Herbicide Nos. 5 (chlorimuron ethyl, active ingredient in CLASSIC® herbicide), 7 (nicosulfuron, active ingredient in ACCENT® herbicide) and 15 (tribenuron methyl, active ingredient in EXPRESS® herbicide) were substituted as test herbicides.
In this example, using the same procedure as above, the following imidazolinone herbicides were used with the same insecticide/biocide and antidotes as above: Herb. No. 16 (imazaquin, a.i. in SCEPTER® herbicide; No. 19 (Code No. AC 222293, a.i. in ASSERT® herbicide); No. 6 (imazethapyr, a.i. in PURSUIT® herbicide and No. 18 (imazapyr, a.i. in ARSENAL® herbicide). Test results are shown in Table 40. Table 40
This example describes the testing of the above antidotes used in Examples 39-41 to safen negative synergy interactions between representative species of the class of herbicidal compounds identified as azolopyrimidine sulfonamides and COUNTER 15G. The same procedure used in the above examples was conducted in this test. In this test, the herbicides were formulated in 17% acetone and 83% water with 0.25% v/v X-77 surfactant.
In these tests (according to Procedure VII) the safeners in solution with acetone were applied in furrow to the soil, followed by COUNTER 15G granules at 227 g/305 m (8 oz./1000'). Applications were made in alternate rows in two separate 13.7 cm x 27.7 cm pans containing Dupo silt loam. Pans were seeded 1.3 cm deep, placed on benches in a greenhouse and subirrigated. BEACON was formulated in water with 0.25% v/v X-77 surfactant and applied by track sprayer at a rate of 187 L/Ha (20 gal/A). Weed species in this test were giant foxtail, shattercane and velvetleaf. The herbicide was applied five (5) days after PPI initiation and observation of test result (shown in Table 47) made eight (8) days later.
In Table 47 COUNTER 15G is abbreviated as "C" and the antidotes as "A" in the column headings which indicate the "C + A" ratios used in the tests. Control and COUNTER treatments are average of four (4) replications and COUNTER + Antidote treatments, average of 2 reps. […]

[7] = test system: Shattercane (SHCA); assay type: in vivo; conditions: […]
[8] = test system: Velvetleaf (VELE); assay type: in vivo, Abutilon theophrasti; conditions: […]
[9] = test system: Velvetleaf (VELE); experiment: whole plant or invertebrate; assay type: in vivo, Abutilon theophrasti
[10] = Ex. 2: Insecticide 2 3.36 Kg/Ha + Herbicide 2 4.48 Kg/Ha
[11] = Ex. 2: Insecticide 1 (0.23 Kg/Ha) + Herbicide 9 2.24 Kg/Ha
[12] = Ex. 2: Insecticide 2 3.36 Kg/Ha + Herbicide 9 2.24 Kg/Ha
[13] = observed 8 days later (Table 32)
[14] = observed 8 days later (Table 33)
[15] = […], PPI, 14 days after PPI (Table 34)
[16] = observed 9 days later (Table 29)
[17] = observed 9 days later (Table 30)
[18] = […], PPI, 13 days after PPI (Table 31)
[19] = observed 7 days after POE (Table 35)
[20] = observed 7 days after POE (Table 36)

CCOCN(C(=O)CCl)c1c(C)cccc1CC [Herbicide No. 2, 2-Chloro-2'-ethyl-6'-methyl-N-(ethoxymethyl)acetanilide, reference compound]
% Injury Corn ([1]; Ex. 2: Insecticide 1 0.23 Kg/305m (ditto mark) + Herbicide 2 4.48 Kg/Ha (so in the source)): 66% and 93% | % Injury Corn [1, 10]: 76% | % Injury Corn ([1]; Ex. 3: Herbicide 2 4.48 Kg/Ha): 78% | % Injury Corn ([1]; Ex. 3: Insecticide 3 (227 g) + Herbicide 2 4.48 Kg/Ha): 83% | % Injury Corn ([1]; Ex. 3: Insecticide 4 (227g) + Herbicide 2 4.48 Kg/Ha): 95% | % Injury VELE [2, 10]: 35%

CCNc1nc(Cl)nc(NC(C)C)n1 [Herbicide No. 9, 2-Chloro-4-(ethylamino)-6-(isopropylamino)-S-triazine, reference compound]
% Injury Corn [1, 11]: 3% | % Injury Corn [1, 12]: 0% | injury to corn ([1]; Ex. 2: combination of the insecticides (Nos. 1, 2) with atrazine): did not appear to be any significant injury | % Injury Corn ([1]; Ex. 3: Herbicide 9 2.24 Kg/Ha): 0% | % Injury Corn ([1]; Ex. 3: Insecticide 3 (227 g) + Herbicide 9 2.24 Kg/Ha): 0% | % Injury Corn ([1]; Ex. 3: Insecticide 4 (227 g) + Herbicide 9 2.24 Kg/Ha): 0% | % Injury VELE [2, 11]: 88% | % Injury VELE [2, 12]: 30%

CCSC(=O)COC(c1ccccc1)c1ccccc1 [compound 51]
% Inhibition Corn [3, 13]: 0% | % Inhibition Corn [3, 14]: 30% | % Inhibition GIFT [4, 15]: 65% | % Inhibition Corn [5, 15]: 25% | % Corn Inhibition C:A Ratios 5 ([6]; C:A ratio 5): 0% | % Corn Inhibition C:A Ratios 10 ([6]; C:A ratio 10): 5% | % Corn Inhibition C:A Ratios 20 ([6]; C:A ratio 20): 3% | % Corn Inhibition C:A Ratios 40 ([6]; C:A ratio 40): 8% | % Corn Inhibition C:A Ratios 80 ([6]; C:A ratio 80): 10% | % Corn Inhibition C:A Ratios 160 ([6]; C:A ratio 160): 10% | % Inhibition SHCA [7, 13]: 80% | % Inhibition SHCA [7, 14]: 35% | % Inhibition VELE [8, 13]: 85% | % Inhibition VELE [8, 14]: 70% | % Inhibition VELE [9, 15]: 90%

CCC1c2ccccc2CCN1C(=O)C(Cl)Cl (centres unmarked) [compound 39]
% Inhibition Corn [3, 16]: 25% | % Inhibition Corn [3, 17]: 40% | % Inhibition GIFT [4, 18]: 85% | % Inhibition Corn [5, 18]: 50% | % Inhibition SHCA [7, 16]: 75% | % Inhibition SHCA [7, 17]: 40% | % Inhibition VELE [8, 16]: 90% | % Inhibition VELE [8, 17]: 80% | % Inhibition VELE [9, 18]: 95%

Cc1cccc(C)c1C(OCC(=O)O)c1c(C)cccc1C [compound 56]
% Inhibition Corn [3, 13]: 60% | % Inhibition Corn [3, 14]: 60% | % Inhibition GIFT [4, 15]: 75% | % Inhibition Corn [5, 15]: 65% | % Inhibition SHCA [7, 13]: 75% | % Inhibition SHCA [7, 14]: 30% | % Inhibition VELE [8, 13]: 85% | % Inhibition VELE [8, 14]: 75% | % Inhibition VELE [9, 15]: 85%

O=C(C(Cl)Cl)N1CCc2ccccc2C1c1ccccc1 (centres unmarked) [compound 40]
% Inhibition Corn [3, 16]: 45% | % Inhibition Corn [3, 17]: 35% | % Inhibition GIFT [4, 18]: 70% | % Inhibition Corn [5, 18]: 60% | % Inhibition SHCA [7, 16]: 85% | % Inhibition SHCA [7, 17]: 40% | % Inhibition VELE [8, 16]: 90% | % Inhibition VELE [8, 17]: 70% | % Inhibition VELE [9, 18]: 85%

C=CCC(C)(C#N)Sc1ccc(C(C)C)cc1 (centres unmarked) [compound 75]
% Inhibition Corn [3, 19]: 70% | % Inhibition Corn [3, 20]: 65% | % Inhibition GIFT ([4]; in vivo): 75% | % Inhibition Corn ([5]; in vivo): 75% | % Inhibition SHCA [7, 19]: 70% | % Inhibition SHCA [7, 20]: 40% | % Inhibition VELE [8, 19]: 85% | % Inhibition VELE [8, 20]: 75% | % Inhibition VELE ([9]; in vivo): 85%
